Experimental findings from patent publication US20130165734A1, “TIME-DOMAIN TRANSDUCTION SIGNALS AND METHODS OF THEIR PRODUCTION AND USE” (Nativis, Inc., priority 2009, published 2013) are described below.

In data set [1] the test system is tubulin. Put plainly: in vitro tubulin polymerization (aggregation) assay, absorbance at 340 nm. Conditions: 4 μM taxol, tubulin 1.5 mg/ml in GPEM buffer, first ten minutes. The class given is biochemical. Here is the method:
The M2(3) and a number of other high-score signals were tested for their ability to stabilize tubulin polymerization, employing the transduction system described above with reference to FIG. 7A. […] This assay has been described, for example, in Shelanski, M. L., Gaskin, F. and Cantor, C. R. (1973). Microtubule assembly in the absence of added nucleotides. Proc. Natl. Acad. Sci. U.S.A. 70, 765-768; and Lee, J. C. and Timasheff, S. N. (1977). In vitro reconstitution of calf brain microtubules: effects of solution variable. Biochemistry, 16, 1754-1762.
The M2(3) and a number of other high-score taxol signals were tested for their ability to stabilize tubulin polymerization. […] Change in optical absorption at 340 nm was measured continuously for each sample, and the OD340 data was used to calculate a rate of tubulin polymerization (dA/minute at 340 nm) at each one minute interval during the transduction study.
The results of the study, expressed as rate or tubulin polymerization over the first ten minutes of the study, are shown in FIGS. 9A and 9B.

The test system of another data set is U87 glioblastoma cells. As to the kind of experiment: intracranial U87 glioblastoma tumor study in mice. The class given is in vivo. The settings on record: tumor-bearing animals treated with taxol compound over the same 23 day period.
A short description of data set [2]: observation of side effects in treated tumor-bearing animals. Conditions: animals treated with taxol; preliminary observations. It is filed as in vivo, mice. From the text:
Another potential advantage of signal therapy over the conventional drug therapy is the potential for reduced side effects.

Data set [3] relates to tubulin. Put plainly: electron microscopy of tubulin assay samples. The class given is biochemical. The settings on record: 10 minutes exposure to 4 μM taxol. From the text: The assay samples from above were examined by electron microscopy to confirm that the nature of the microtubule polymers formed in the assay, either by the addition of taxol or the taxol-derived time-domain signal. FIGS. 10A-10F are photo electron micrographs, taken at 21,000× and 52,000× magnification, of a tubulin suspension for untreated control (FIGS. 10A and 10B), cremaphore alone, FIGS. 10C, 10D), and the tubulin suspension exposed to the magnetic field of a white-noise signal. Each sample was allowed to incubate in the system cell for 10 minutes under the conditions described, then placed on ice and immediately after cooling, placed on an EM grid and fixed for with stain. No evidence of significant tubulin formation is observed in any of these samples.
FIGS. 12A-12D show the morphology of the tubulin assay samples after 10 minutes exposure to 4 μM taxol, where the samples were cooled after 10 minutes and prepared for EM as above.
FIGS. 13A-13D show the morphology of the tubulin assay samples after 10 minutes exposure to the above M2(3) taxol-derived time-domain signal. 4 μM taxol, where the samples were cooled after 10 minutes and prepared for EM as above.

`CC(=O)O[C@H]1C(=O)[C@@]2(C)[C@H]([C@H](OC(=O)c3ccccc3)[C@]3(O)C[C@H](OC(=O)[C@H](O)[C@@H](NC(=O)c4ccccc4)c4ccccc4)C(C)=C1C3(C)C)[C@]1(OC(C)=O)CO[C@@H]1C[C@@H]2O` [taxol, taxol (paclitaxel)]: the “increase in absorbance (tubulin polymerization) over the tubulin control” value with tubulin [1] was “increased more than twofold”. The “tumor volume result compared with signal treatment” value with U87 glioblastoma cells is “A similar result was seen”. In data set [2], the “side effects (activity, behavior, appetite)” value is “showed the expected signs of lethargy and loss of appetite”. For the same compound, in the data set with tubulin [3], the “morphology of tubulin assay samples (EM)” value is on record as “A number of well-developed microtubular structures, including multi-lamellar structures are seen”.
